How the values were obtained:
[1] = Growth inhibition of human DLD1 cells assessed as inhibition of cell viability after 72 hrs by MTT assay; assay type: functional, cell-based; details: DLD-1, 72 h
[2] = system: HeLa; assay: Growth inhibition of human HeLa cells assessed as inhibition of cell viability after 72 hrs by MTT assay; assay type: functional, cell-based

Row | IC50 [2] [µM] | Compound | IC50 [1] [µM]
1 | 52 | CC(=O)O[C@H]1CO[C@@H](O[C@@H]2C[C@]3(C)[C@H](CC[C@@H]4[C@@]5(C)CC[C@H](O)C(C)(C)[C@@H]5[C@@H](O)C[C@]43C)[C@@]3(C)C[C@@H](O[C@@H]4O[C@H](CO)[C@@H](O)[C@H](O)[C@H]4O)[C@H](O)C(C)(C)[C@H]23)[C@H](O)[C@H]1O | 52
2 | 16 | COc1cc([C@@H]2c3cc4c(cc3[C@@H](O[C@@H]3O[C@@H]5CO[C@@H](C)O[C@H]5[C@H](O)[C@H]3O)[C@H]3COC(=O)[C@H]23)OCO4)cc(OC)c1O [ETOPOSIDE] | 20

Reference: ChEMBL document CHEMBL3124936, “Unusual fernane and gammacerane glycosides from the aerial parts of Spergula fallax” (J Nat Prod, 2014)
